This note sets out measurements from patent US9840494B2, “Quinazoline derivative” (Tianjin Hemay Oncology Pharmaceutical Co., Ltd., priority 2013, dated 2017).

What is called pIC50 is −log10 of the IC50, conventionally taken in molar units. The low end stands for a large IC50, the high end for a small IC50. The bioavailability is the share of a dose that reaches the circulation, judged against a reference dose that is usually intravenous. A higher bioavailability goes with good availability. For orientation: AUC(0-inf) means the area under the concentration-time curve extrapolated to infinity. Lower therefore signals low exposure. The term AUC(0-t) denotes exposure summed from dosing to a finite time, without extrapolation to infinity. A low value points to less exposure. By Cmax is commonly meant the maximum level reached in the sampled fluid or tissue. A word on the Tmax: it is the time at which the peak concentration occurs. What is called T/C is the ratio of treated to control.

Series [1] deals with T1, EGFR (Homo sapiens, UniProt P00533).
T1 construct: purchased Invitrogen Company PV3872
Description: Inhibitory effect on tyrosine kinase activity of EGFR. The note with it: EGFR 40 ng/ml, ATP 10 μM, 30 min. It is filed as biochemical. On the procedure: EGFR: Invitrogen Company, Catalogue No. PV3872
pGT (poly(glutamic acid-tyrosine)): Sigma-Aldrich Company, Catalogue No. P0275
The assay method is briefly described as follows.
3.1.1 At 4° C., 96-well microtiter plate was coated with 0.2 mg/mL pGT (as the substrate of enzyme) dissolved in PBS (phosphate buffer) overnight. Unbound pGT was washed away with a washing solution (0.05% Tween −20 in PBS), and the plate was dried in the air at room temperature for 2 h.
3.1.2 The enzyme reaction was performed in 50 μl reaction system containing 50 mM HEPEs (N-(2-hydroxyethyl)piperazine-N′-2-ethanesulfonic acid), pH 7.5, 0.01% BRIJ-35 (polyoxyethylene lauryl ether), 10 mM MgCl2, 1 mM EGTA (ethylene glycol bis(2-aminoethyl ether)tetraacetic acid), with certain concentrations of ATP (adenosine triphosphate) and kinase, and proceeded for 30 min at room temperature. The phosphate group at the terminal of ATP can be transferred to tyrosine residues of pGT by kinase catalysis so as to phosphorylate the tyrosine residues.
3.1.3 A final concentration of 1% SDS (sodium dodecyl sulfate) was added to terminate the reaction. The phosphorylated tyrosine residues were identified using pY-20. HRP at the end of the antibody enabled TMB to take on color. Then equal amount of 2 N H2SO4 was added to terminate the reaction. OD value, which is positively correlated with the phosphorylation degree of tyrosine residues of pGT, was measured at 450 nm
3.2 The concentrations of the kinase and substrate ATP were determined with reference to the literature “Optimization of a LanthaScreen Kinase assay for EGFR (ErbB1)”(https://tools.lifetechnologies.com/content/sfs/manuals/EGFR_LanthaScreen_actity_Europium.pdf), published by Invitrogen Corporation. The selection criteria for the final concentrations are that the concentration of kinase enabling the yield of the product within the linear range of the detection system and the concentration of ATP approching Km (Michaelis constant) value.
3.3.1 An appropriate amount of a compound was dissolved in DMSO (dimethylsulfoxide) to prepare 2 mM stock solution. Then the stock solution was diluted with DMSO to obtain a working solution with a 50-fold concentration of the highest test concentration, and subjected to a 4-fold gradient dilution to obtain seven concentrations in total.
5 μl 10-fold concentration of ATP dissolved in H2O (the concentration of ATP in EGFR assay is 100 μM, and in Her2 assay is 400 μM) was added to initiate the enzyme reaction followed by reaction at room temperature for 30 min
The mean value of inhibition rate and SD (standard deviation) were determined by duplicate wells. A curve with the concentration of the compound as abscissa and being in logarithmic distribution and the mean value of inhibition rate as ordinate was plotted and fitted using four-parameter logistic function.

The nature of series [2]: Bioavailability assay in rats, Experiment II (dihydrobromide). It is filed as in vivo. The note with it: Wistar rats.
Series [3] deals with A431 human epidermal carcinoma xenograft. The series can be described thus: A431 human epidermal carcinoma xenograft model. It is filed as in vivo, nude mice. The settings on record: A431 xenograft, 50 mg/kg intragastric once a day for 14 days. On the procedure:
Tumor cells were cultured in an incubator at 37° C. with 5% CO2 using MEM medium containing 10% inactivated fetal calf serum, 100 U/ml penicillin and 100 µg/ml streptomycin. The tumor cells in logarithmic growth phase were collected, adjusted to an appropriate density and injected subcutaneously into nude mice (0.2 ml per mouse). An xenograft model was established after a tumor was formed in the nude mice and passaged in vivo for more than three generations.
The above-mentioned tumor-bearing mice were sacrificed by cervical dislocation. The tumor was taken out and cut into small tumor pieces (about 2 mm×2 mm×2 mm) under sterile conditions. The small tumor pieces were inoculated subcutaneously into nude mice with a trocar. […] The animals in each group were subjected to intragastric administration once a day for 14 consecutive days. The day of grouping is assigned as day 0.
(§1) Tumor volume is calculated as: volume =0.5×long diameter×short diameter^2. The relative tumor volume (RTV) was calculated based on the measurements as: RTV=Vt/V0, wherein V0 is the tumor volume measured when the animals were grouped to be administrated (i.e., d0), and Vt is the tumor volume when each measurement was taken. Relative tumor proliferation rate T/C was calculated based on relative tumor volume, in which T is the mean value of the relative tumor volume of the treatment group, and C is the mean value of the relative tumor volume of the solvent control group. T/C was calculated as follows: T/C=TRTV/CRTV×100% (TRTV: RTV of the treatment group; CRTV:
RTV of the solvent control group) Inhibition rate (%)=(mean tumor weight of the solvent control group−mean tumor weight of the treatment group)/mean tumor weight of the solvent control group×100%. Percentage of body weight change=Wn/W0×100% (Wn: mean body weight of experimental animals in each group at day n, W0: mean body weight of experimental animals in each group at day 0).
(§2) One-Way ANOVA test was conducted in SPSS13.0, performing statistical analysis between groups.
Background: Xenograft models place foreign cells or tissue in a host animal.

The subject of series [4] is FaDu human head and neck cancer xenograft. The series can be described thus: FaDu human head and neck cancer xenograft model. It is filed as in vivo, nude mice. The settings on record: FaDu xenograft, 50 mg/kg intragastric daily for 14 days. The procedure: Tumor cells were cultured in an incubator at 37° C. with 5% CO2 using MEM medium containing 10% inactivated fetal calf serum, 100 U/ml penicillin and 100 μg/ml streptomycin. The tumor cells in logarithmic growth phase were collected, adjusted to an appropriate density and injected subcutaneously into nude mice (0.2 ml per mouse). An xenograft model was established after tumor was formed in the nude mice and passaged in vivo for more than three generations.
(§3) The above-mentioned tumor-bearing mice were sacrificed by cervical dislocation. The tumor was taken out and cut into small tumor pieces (about 2 mm×2 mm×2 mm) under sterile conditions. The small tumor pieces were inoculated subcutaneously into nude mice on the right shoulder blade with a trocar. […] The animals in each group were subjected to intragastric administration daily for 14 consecutive days. The day of grouping is assigned as day 0.
as §1, with “volume=0.5×long” for “volume =0.5×long”, “CRTV: RTV of the solvent control group) Inhibition rate (%)=(mean tumor weight of the solvent control group−mean tumor weight of the treatment group)/mean tumor weight of the solvent control group×100%. Percentage of body weight change=Wn/W0×100% (Wn: mean body weight of experimental animals in each group at day n, W0: mean body weight of experimental animals in each group at day 0).” for “CRTV:”
as §2

In series [5] the test system is HCC827 human non-small cell lung cancer xenograft. Description: HCC827 human non-small cell lung cancer xenograft model. It is filed as in vivo, nude mice. The note with it: HCC827 xenograft, 50 mg/kg intragastric daily for 14 days. The procedure:
Tumor cells were cultured in an incubator at 37° C. with 5% CO2 using MEM medium containing 10% inactivated fetal calf serum, 100 U/ml penicillin and 100 μg/ml streptomycin. The tumor cells in logarithmic growth phase were collected, adjusted to an appropriate density and injected subcutaneously into nude mice (0.2 ml per mouse). An xenograft model was established after a tumor was formed in the nude mice and passaged in vivo for more than three generations.
as §3
as §1, with “volume=0.5×long” for “volume =0.5×long”, “CRTV: RTV of the solvent control group) Inhibition rate (%)=(mean tumor weight of the solvent control group−mean tumor weight of the treatment group)/mean tumor weight of the solvent control group x 100%. Percentage of body weight change=Wn/W0×100% (Wn: mean body weight of experimental animals in each group at day n, W0: mean body weight of experimental animals in each group at day 0).” for “CRTV:”
as §2

[6] abbreviates: 20 mg/kg tail intravenous injection.
The mark [7] stands for this setting: both sexes, rat, plasma, po, 20 mg/kg intragastric gavage.
Setting [8] is: both sexes, rat, plasma, 20 mg/kg tail intravenous injection.

pIC50: −log10 of the molar value. Marks after values point to notes of the source that are not given here.

As for `COCCOc1cc2ncnc(Nc3ccc(F)c(Cl)c3)c2cc1NC(=O)C=C1CCN(CCOC)CC1` [Compound 6, N-[4-(3-chloro-4-fluorophenylamino)-7-(2-methoxyethoxy)quinazolin-6-yl]-2-[1-(2-methoxyethyl)piperidin-4-ylidene]acetamide dinitrate], the pIC50 in series [1] was 9.22.

For `COCCOc1cc2ncnc(Nc3ccc(F)c(Cl)c3)c2cc1NC(=O)C=C1CCN(CCOC)CC1` [Compound 8, N-[4-(3-chloro-4-fluorophenylamino)-7-(2-methoxyethoxy)quinazolin-6-yl]-2-[1-(2-methoxyethyl)piperidin-4-ylidene]acetamide diphenylsulfonate], the negative-log IC50 (pIC50) in series [1] is 9.10.

As for `COCCOc1cc2ncnc(Nc3ccc(F)c(Cl)c3)c2cc1NC(=O)C=C1CCN(CCOC)CC1` [Compound 9, N-[4-(3-chloro-4-fluorophenylamino)-7-(2-methoxyethoxy)quinazolin-6-yl]-2-[1-(2-methoxyethyl)piperidin-4-ylidene]acetamide difumarate], in series [1], the pIC50 is 9.30.

Consider `COCCOc1cc2ncnc(Nc3ccc(F)c(Cl)c3)c2cc1NC(=O)C=C1CCN(CCOC)CC1` [Compound 10, N-[4-(3-chloro-4-fluorophenylamino)-7-(2-methoxyethoxy)quinazolin-6-yl]-2-[1-(2-methoxyethyl)piperidin-4-ylidene]acetamide dimaleate], for which the pIC50 in series [1] was 9.52.

For the molecule `COCCOc1cc2ncnc(Nc3ccc(F)c(Cl)c3)c2cc1NC(=O)C=C1CCN(CCOC)CC1` [Compound 11, N-[4-(3-chloro-4-fluorophenylamino)-7-(2-methoxyethoxy)quinazolin-6yl]-2-[1-(2-methoxyethyl)piperidin-4-ylidene]acetamide di(p-toluenesulfonate)], the pIC50 in series [1] is 9.40.

For the molecule `Br.Br.COCCOc1cc2ncnc(Nc3ccc(F)c(Cl)c3)c2cc1NC(=O)C=C1CCN(CCOC)CC1` [Example 5, N-[4-(3-chloro-4-fluorophenylamino)-7-(2-methoxyethoxy)quinazolin-6-yl]-2-[1-(2-methoxyethyl)piperidin-4-ylidene]acetamide dihydrobromide], in series [2] (20 mg/kg intragastric gavage), the CLz/F is 66.48 mL/min/kg and the t½z is reported as 5.564 h. In series [2] (setting [6]), this molecule had a CLz of 25.8 mL/min/kg and a t½z of 5.514 h. In series [2] (both sexes, rat, plasma, oral, 20 mg/kg ig vs 20 mg/kg iv), this molecule returned a bioavailability of 42.8%. Further, in series [2] (setting [7]), the AUC(0-inf) came out at 5550 ng·h/mL, the AUC(0-t) was 5240 ng·h/mL, the Cmax was 368 ng/mL and the Tmax was 6 h. Moreover, the Vd/F in series [2] (both sexes, rat, plasma, po, 20 mg/kg intragastric gavage, read-out: Vz/F) was 30.1 L/kg. For the same molecule, in series [2] (setting [8]), the AUC(0-inf) was determined as 13000 ng·h/mL, the AUC(0-t) came out at 12700 ng·h/mL, the Cmax was found to be 3240 ng/mL and the Tmax stood at 0.083 h. The Vd in series [2] (both sexes, rat, plasma, 20 mg/kg tail intravenous injection, read-out: Vz) was found to be 12.2 L/kg.

For `C#Cc1cccc(Nc2ncnc3cc(OCCOC)c(OCCOC)cc23)c1` [Tarceva, reference compound], the “Tumor Weight (x ± S.D.)” value in series [3] amounted to 0.281 ± 0.252 g; in series [4] it was 0.650 ± 0.267 g; in series [5] it was 0.067 ± 0.055 g. The “Tumor Inhibitor Rate” value is 62.0% in series [3] (by tumor weight) and 40.6% in series [4] (by tumor weight). Besides, the T/C in series [3] (end of the assay) is recorded as 47.3%; in series [4] (end of the assay) it was 59.9%; in series [5] (end of the assay) it was 5.0%. For the same molecule, the “Tumor Volume (x ± S.D.)” value in series [3] (end of the assay) is 498.9 ± 263.4** mm^3; in series [4] (end of the assay), 709.9 ± 274.9** mm^3; in series [5] (end of the assay), 55.3 ± 46.3*** mm^3.

In series [1], “N-[4-(3-chloro-4-fluorophenylamino)-7-(2-methoxyethoxy)quinazolin-6yl]-2-[piperidin-4-ylidene]acetamide disulfate [Compound 5]” showed a pIC50 of 9.52.
